In patent publication US12077503B2, “Substituted cyclic amides and their use as herbicides” (FMC CORPORATION, priority 2015, dated 2024):

Key:
Format in all cases: in vivo
[1] = test system: velvetleaf (Abutilon theophrasti); assay: Test G Post-Emergence Protocol; details: Abutilon theophrasti, post-emergence, 312 h, read-out: Velvetleaf damage rating
How it was run: (§1)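 Sow in soil; grow 8 d (24/16 °C, 14 h light, 65% humidity); spray 15.625/62.5/250 g/ha in acetone:water 50:50 + 0.5% Tween 20; grow on, water twice daily; score damage 0–100 at 13 d.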

[2] = test system: giant foxtail (Setaria faberi); assay: Test G Post-Emergence Protocol; details: Setaria faberi, post-emergence, 312 h, read-out: Foxtail, Giant damage rating
How it was run: as §1

[3] = test system: redroot pigweed (Amaranthus retroflexus); assay: Test G Post-Emergence Protocol; details: Amaranthus retroflexus, post-emergence, 312 h, read-out: Pigweed, Redroot damage rating
How it was run: as §1

[4] = test system: corn (Zea mays); assay: Test G Post-Emergence Protocol; details: Zea mays, post-emergence, 312 h, read-out: Corn damage rating
How it was run: as §1

[5] = test system: ivy-leaved morning glory (Ipomoea hederacea); assay: Test G Post-Emergence Protocol; details: Ipomoea, post-emergence, 312 h, read-out: Morningglory, Ivy-leaved damage rating
How it was run: as §1

[6] = test system: barnyardgrass (Echinochloa crus-galli); assay: Test G Post-Emergence Protocol; details: Echinochloa crus-galli, post-emergence, 312 h, read-out: Barnyardgrass damage rating
How it was run: as §1

[7] = test system: velvetleaf (Abutilon theophrasti); assay: Test G Pre-Emergence Protocol; details: Abutilon theophrasti, pre-emergence, 312 h, evaluated after 13 days
How it was run: (§2)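 Under a 24/16° C day/night regime with 14 h light and 65% humidity, sown pots were sprayed after one day with compound (15.625, 62.5 or 250 g/ha; 50:50 acetone/water, 0.5% Tween 20). Damage was assessed visually 13 days later, 0 to 100.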

[8] = test system: giant foxtail (Setaria faberi); assay: Test G Pre-Emergence Protocol; details: Setaria faberi, pre-emergence, 312 h, evaluated after 13 days
How it was run: as §2

[9] = test system: redroot pigweed (Amaranthus retroflexus); assay: Test G Pre-Emergence Protocol; details: Amaranthus retroflexus, pre-emergence, 312 h, evaluated after 13 days
How it was run: as §2

[10] = test system: corn (Zea mays); assay: Test G Pre-Emergence Protocol; details: Zea mays, pre-emergence, 312 h, evaluated after 13 days
How it was run: as §2

[11] = test system: ivy-leaved morning glory (Ipomoea hederacea); assay: Test G Pre-Emergence Protocol; details: Ipomoea, pre-emergence, 312 h, evaluated after 13 days
How it was run: as §2

[12] = test system: barnyardgrass (Echinochloa crus-galli); assay: Test G Pre-Emergence Protocol; details: Echinochloa crus-galli, pre-emergence, 312 h, evaluated after 13 days
How it was run: as §2

[13] = 15.625 g ai/ha, evaluated after 13 days (100=total damage to plant; 0=no damage to plant)
[14] = 62.5 g ai/ha, evaluated after 13 days, 100=total damage to plant, 0=no damage to plant
[15] = 250 g ai/ha, evaluated after 13 days, 100=total damage to plant, 0=no damage to plant

CN1C[C@H](c2ccc(Cl)cc2)[C@@H](C(=O)Nc2cnccc2C(F)(F)F)C1=O [Compound 1812] showed a pest or weed control at 15.625 g/ha [1, 13] of 0%, a pest or weed control at 62.5 g/ha [1, 14] of 10% and a pest or weed control at 250 g/ha [1, 15] of 60%. It also gave a pest or weed control at 15.625 g/ha [2, 13] of 0%, a pest or weed control at 62.5 g/ha [2, 14] of 80% and a pest or weed control at 250 g/ha [2, 15] of 80%. The pest or weed control at 15.625 g/ha [3, 13] was 0%, the pest or weed control at 62.5 g/ha [3, 14] was 20% and the pest or weed control at 250 g/ha [3, 15] was 50%. For the same compound, the plant injury at 15.625 g/ha [4, 13] was 0%, the plant injury at 62.5 g/ha [4, 14] was 0% and the plant injury at 250 g/ha [4, 15] was 50%. It also gave a pest or weed control at 15.625 g/ha [5, 13] of 0%, a pest or weed control at 62.5 g/ha [5, 14] of 50% and a pest or weed control at 250 g/ha [5, 15] of 70%. The pest or weed control at 15.625 g/ha [6, 13] was 0%, the pest or weed control at 62.5 g/ha [6, 14] was 0% and the pest or weed control at 250 g/ha [6, 15] was 70%. For the same compound, the pest or weed control at 15.625 g/ha ([7]; 15.625 g ai/ha, read-out: Velvetleaf damage rating (100=total damage to plant; 0=no damage to plant)) was 0%, the pest or weed control at 62.5 g/ha ([7]; 62.5 g ai/ha, 100=total damage to plant, 0=no damage to plant, read-out: Velvetleaf damage rating) was 40% and the pest or weed control at 250 g/ha ([7]; 250 g ai/ha, read-out: Velvetleaf damage rating (100=total damage to plant; 0=no damage to plant)) was 80%. For the same compound, the pest or weed control at 15.625 g/ha ([8]; 15.625 g ai/ha, read-out: Foxtail, Giant damage rating (100=total damage to plant; 0=no damage to plant)) was 90%, the pest or weed control at 62.5 g/ha ([8]; 62.5 g ai/ha, 100=total damage to plant, 0=no damage to plant, read-out: Foxtail, Giant damage rating) was 90% and the pest or weed control at 250 g/ha ([8]; 250 g ai/ha, read-out: Foxtail, Giant damage rating (100=total damage to plant; 0=no damage to plant)) was 90%. It also gave a pest or weed control at 15.625 g/ha ([9]; 15.625 g ai/ha, read-out: Pigweed, Redroot damage rating (100=total damage to plant; 0=no damage to plant)) of 0%, a pest or weed control at 62.5 g/ha ([9]; 62.5 g ai/ha, 100=total damage to plant, 0=no damage to plant, read-out: Pigweed, Redroot damage rating) of 20% and a pest or weed control at 250 g/ha ([9]; 250 g ai/ha, read-out: Pigweed, Redroot damage rating (100=total damage to plant; 0=no damage to plant)) of 70%. The plant injury at 15.625 g/ha ([10]; 15.625 g ai/ha, read-out: Corn damage rating (100=total damage to plant; 0=no damage to plant)) was 0%, the plant injury at 62.5 g/ha ([10]; 62.5 g ai/ha, 100=total damage to plant, 0=no damage to plant, read-out: Corn damage rating) was 0% and the plant injury at 250 g/ha ([10]; 250 g ai/ha, read-out: Corn damage rating (100=total damage to plant; 0=no damage to plant)) was 40%. For the same compound, the pest or weed control at 15.625 g/ha ([11]; 15.625 g ai/ha, read-out: Morningglory, Ivy-leaved damage rating (100=total damage to plant; 0=no damage to plant)) was 0%, the pest or weed control at 62.5 g/ha ([11]; 62.5 g ai/ha, 100=total damage to plant, 0=no damage to plant, read-out: Morningglory, Ivy-leaved damage rating) was 0% and the pest or weed control at 250 g/ha ([11]; 250 g ai/ha, read-out: Morningglory, Ivy-leaved damage rating (100=total damage to plant; 0=no damage to plant)) was 40%. For the same compound, the pest or weed control at 15.625 g/ha ([12]; 15.625 g ai/ha, read-out: Barnyardgrass damage rating (100=total damage to plant; 0=no damage to plant)) was 0%, the pest or weed control at 62.5 g/ha ([12]; 62.5 g ai/ha, 100=total damage to plant, 0=no damage to plant, read-out: Barnyardgrass damage rating) was 0% and the pest or weed control at 250 g/ha ([12]; 250 g ai/ha, read-out: Barnyardgrass damage rating (100=total damage to plant; 0=no damage to plant)) was 70%.
